Measured values as given in patent publication US12194105B2, “Composition and method for new antimicrobial agents with secondary mode of action provided by conjugation of an antimicrobial to a guanidinium-rich molecular transporter” (The Board of Trustees of the Leland Stanford Junior …, priority 2018, dated 2025).
≈ marks a conversion by molar mass, not a printed value. Entries after “also recorded” stand apart in the source; their conditions may differ. Read-outs that look alike come from different tables or passages of the source.

Legend:
[1] = test system: MRSA USA300 LAC persister cells; test: Time-kill of persister cells generated with ciprofloxacin; type: cell-based, Staphylococcus aureus; details: for killing of persister cells: in words
Method: FIG. 1. Time-kill study of MRSA USA300 LAC persister cells treated with vancomycin and V-r8. MRSA persister cells were generated by treatment with ciprofloxacin at 40 μM for 6 h. Vancomycin or V-r8 (TFA salt) was then introduced at a concentration of 10 μM. Data points are median Log(CFU/ml) values from 2 independent experiments (N=2) where treatments were performed in singlicate. Error bars represent IQR. Detection limit: 1 Log(CFU/ml).
Evaluation of antibacterial activity against persister cells. USA300 persister cells were generated by diluting an overnight culture of USA300 bacteria 1:1000 in 4 mL MHB and growing to OD 0.5 at 37° C. with 200 rpm shaking. […] Upon 6 h treatment with ciprofloxacin, 500 μL culture aliquots were added to Eppendorf tubes and compounds were added from concentrated stocks (mM range) to yield desired final concentrations (10-20 μM). […] CFU/ml were plated at indicated time points to monitor treatment efficacy. The experiment was performed at least twice on separate days.

MRSA USA300 biofilms = test: Biofilm reduction in vitro after 5 h treatment, Calgary Biofilms Device; type: cell-based, Staphylococcus aureus; details: for Log CFU/ml counts: 5 h treatment, median (IQR), untreated 4.5, detection limit 2 Log
MRSA USA400 MW2 = test: Time-kill in MHB; type: cell-based, Staphylococcus aureus; details: 20 μM; detection limit 2.3 Log(CFU/ml)
Method: FIG. 9. Influence of V and V-r8 (both at 20 μM) on cell viability for MRSA USA400 MW2 in MHB.

V. cholerae = test: Time-kill study of V. cholerae; type: cell-based; details: equivalent concentrations
Method: FIG. 11A-11B. Time-kill study of V. cholerae treated with compounds. (FIG. 11A) Treatments were performed at 20 μM in media. (FIG. 11B) Treatments were performed at 2×MIC in PBS. Kan refers to kanamycin, a FDA-approved aminoglycoside. Data points are from a representative experiment. Detection limit=2.3 Log (CFU/ml).

MSSA (29213) [2] = test system: MSSA (29213)
Method: (§1) MICS were determined using broth microdilution in accordance with CLSI methods.^6 One day prior to each MIC experiment, bacterial strains were streaked for single colonies from frozen glycerol stocks stored at −80° C. on Tryptic soy agar. 3-5 colonies from each plate were harvested with a disposable inoculating loop and resuspended in 500 μL PBS. This suspension was diluted in sterile-filtered PBS to an OD of 0.1(˜1×10^8 CFU/ml), and the OD 0.1 suspension was diluted 1:100 in Mueller-Hinton Broth (MHB, Difco 257530) just prior to inoculating the 96-well polypropylene treatment plate. The treatment plate was prepared as follows: 20-fold stocks of the highest concentration of compound tested were prepared in sterile-filtered PBS and were subsequently diluted in MHB to prepare working stocks at 2-times the final concentration. 100 μL of each working stock was placed in the highest concentration treatment well, and the working stocks were 2-fold serially diluted in MHB to lend final treatment volumes of 50 μL/well. 50 μL of adjusted inoculum was added to each well to lend a total volume of 100 μL/well and a final inoculum density of ˜5×10^5 colony forming units (CFU/ml). 10 μL of inoculum in growth control wells was serially diluted in PBS and plated on Tryptic soy agar to verify accurate starting density of cells. Growth controls were included in each plate, where no treatment was applied, along with media only controls. Edge wells were filled with PBS. The completed assay plate was sealed with parafilm, placed in a lidded plastic tray lined with moistened paper towels, and incubated at 37° C. for 18-20 h.

MRSA (USA400MW2) [3] = test system: MRSA (USA400MW2)
Method: as §1

MRSA (USA300LAC) [4] = test system: MRSA (USA300LAC)
Method: (§2) Determination of MICs. MICS were determined using broth microdilution in accordance with CLSI methods.^6 One day prior to each MIC experiment, bacterial strains were streaked for single colonies from frozen glycerol stocks stored at −80° C. on Tryptic soy agar. 3-5 colonies from each plate were harvested with a disposable inoculating loop and resuspended in 500 μL PBS. This suspension was diluted in sterile-filtered PBS to an OD of 0.1(˜1×10^8 CFU/ml), and the OD 0.1 suspension was diluted 1:100 in Mueller-Hinton Broth (MHB, Difco 257530) just prior to inoculating the 96-well polypropylene treatment plate. The treatment plate was prepared as follows: 20-fold stocks of the highest concentration of compound tested were prepared in sterile-filtered PBS and were subsequently diluted in MHB to prepare working stocks at 2-times the final concentration. 100 μL of each working stock was placed in the highest concentration treatment well, and the working stocks were 2-fold serially diluted in MHB to lend final treatment volumes of 50 μL/well. 50 μL of adjusted inoculum was added to each well to lend a total volume of 100 μL/well and a final inoculum density of ˜5×10^5 colony forming units (CFU/ml). 10 μL of inoculum in growth control wells was serially diluted in PBS and plated on Tryptic soy agar to verify accurate starting density of cells. Growth controls were included in each plate, where no treatment was applied, along with media only controls. Edge wells were filled with PBS. The completed assay plate was sealed with parafilm, placed in a lidded plastic tray lined with moistened paper towels, and incubated at 37° C. for 18-20 h.

[5] = 0.05% V-r8, absence of bacteria
Method: To examine in vivo cytotoxicity, sterile wounds were generated and inoculated only with water (FIG. 8A) or 0.05% V-r8 (FIG. 8B) in the absence of bacteria. Wound tissue was harvested after 3 days and examined by Hematoxylin & Eosin staining. […] Epi: skin epidermis; Der: skin dermis. Scale bar represents 100 μm. Images are representative of 3 independent samples.
In vivo histological cytotoxicity assessment. […] Samples were fixed in 4% paraformaldehyde in PBS and incubated in 20% sucrose for 24 hours. Tissues were then embedded into Optical Cutting Temperature (OCT) compound (Sakura, California) and snap frozen in liquid nitrogen. 12 μm sections were obtained on a Leica CM1860 UV cryotome (Leica Biosystems, Ernst-Leitz Strasse, Germany), stained with hemotoxylin and eosin (H&E), and visualized using an Axio Scan.Z1 slide scanner (Carl Zeiss, Göttingen, Germany) under 20×/0.8 Apochrome objective as previously described.

E. faecium Van-Resistant [6] = test system: E. faecium Van-Resistant
Method: as §1

[7] = test system: V. cholerae El Tor A1552R
E. coli UTI89 [8] = test system: E. coli UTI89
Method: as §1

P. aeruginosa PA14 [9] = details: P. aeruginosa PA14, one trial only
Method: (§3) Determination of MICs. MICS were determined using broth microdilution in accordance with CLSI methods.^6 One day prior to each MIC experiment, bacterial strains were streaked for single colonies from frozen glycerol stocks stored at −80° C. on Tryptic soy agar. 3-5 colonies from each plate were harvested with a disposable inoculating loop and resuspended in 500 μL PBS. This suspension was diluted in sterile-filtered PBS to an OD of 0.1(˜1×10^8 CFU/ml), and the OD 0.1 suspension was diluted 1:100 in Mueller-Hinton Broth (MHB, Difco 257530) just prior to inoculating the 96-well polypropylene treatment plate. The treatment plate was prepared as follows: 20-fold stocks of the highest concentration of compound tested were prepared in sterile-filtered PBS and were subsequently diluted in MHB to prepare working stocks at 2-times the final concentration. 100 μL of each working stock was placed in the highest concentration treatment well, and the working stocks were 2-fold serially diluted in MHB to lend final treatment volumes of 50 μL/well. 50 μL of adjusted inoculum was added to each well to lend a total volume of 100 μL/well and a final inoculum density of ˜5×10^5 colony forming units (CFU/ml). 10 μL of inoculum in growth control wells was serially diluted in PBS and plated on Tryptic soy agar to verify accurate starting density of cells. […]

USA300 LAC biofilm wound = test: Murine skin wound excisional biofilm model; details: 0.05% solution topical, 5 h treatment, 24 h post infection, compared to untreated mice
[10] = test system: MW2 stationary-phase cells; test: Bacterial membrane integrity with SYTOX Green; details: V, V-r8 20 μM; lysostaphin 10×MIC
Excerpt: V-r8 mode-of-action analysis using stationary-phase MW2. All data points represent the median of biological duplicates from a representative experiment; all experiments were repeated on a different day to ensure reproducibility. V-r8 was the TFA salt, and PBS was used for the cell only control. […] Assay detection limit=2.3. […] Compound data was normalized to cell-only control data.
Evaluation of Bacterial Membrane Integrity with SYTOX Green. The SYTOX Green assay was adapted from the literature. Briefly, to a black wall clear-bottom 96-well plate (Costar 3603) was added 50 μL of PBS per well containing antibiotics at 2-times the indicated concentration. 1 mL of a stationary phase MW2 culture was pelleted at 10,000 g for 1 min and washed 3 times with the same volume of sterile-filtered PBS. The washed cells were diluted to OD600=0.1 (˜4×10^7 CFU/mL) with PBS. SYTOX Green (Molecular Probes) was added to the diluted stationary phase suspension for a final concentration of 5 μM and incubated for 0.5 h at room temperature in the dark. 50 μL of the bacteria/SYTOX Green mixture was added to each well of 96-well plates containing antibiotics and fluorescence was measured at 37° C. with shaking for up to 4 h using a spectrophotometer (SpectraMax M3, Molecular Devices) with excitation and emission wavelengths of 485 and 525 nm, respectively. Lysostaphin (1.25 μg/mL) was used as a positive control. The experiment was performed twice on separate days.

planktonic S. aureus = test: Antibacterial activity against planktonic bacteria (summary over strains); details: in words
Method: as §3

[11] = test system: E. faecalis Van-Resistant
Method: as §1

MSSA (29213) [12] = test: microbe, parasite or virus in culture; details: Staphylococcus aureus, read-out: Minimum Inhibitory Concentration (MIC)
Method: as §1

MRSA (USA400MW2) [13] = test: microbe, parasite or virus in culture; details: Staphylococcus aureus, read-out: Minimum Inhibitory Concentration (MIC)
Method: as §1

MRSA (USA300LAC) [14] = test: microbe, parasite or virus in culture; details: Staphylococcus aureus, read-out: Minimum Inhibitory Concentration (MIC)
Method: as §2

[15] = test system: E. faecium Van-Susceptible; test: microbe, parasite or virus in culture; details: Enterococcus faecium, read-out: E. faecium MICs Van-Susceptible
Method: as §3

E. faecium Van-Resistant [16] = test: microbe, parasite or virus in culture; details: Enterococcus faecium, read-out: E. faecium MICs Van-Resistant
Method: as §1

[17] = test system: E. faecalis Van-Susceptible; test: microbe, parasite or virus in culture; details: Enterococcus faecalis, read-out: E. faecalis MICs Van-Susceptible
Method: as §3

[18] = test system: E. faecalis Van-Resistant; test: microbe, parasite or virus in culture; details: Enterococcus faecalis, read-out: E. faecalis MICs Van-Resistant
Method: as §1

[19] = test system: V. cholerae El Tor A1552R; test: microbe, parasite or virus in culture; details: Vibrio cholerae, ELTORA1552R, read-out: Median MIC
E. coli UTI89 [20] = test: microbe, parasite or virus in culture; details: Escherichia coli, UTI89, read-out: Median MIC
Method: as §1

P. aeruginosa PA14 [21] = test: microbe, parasite or virus in culture; details: Pseudomonas aeruginosa, PA14, read-out: Median MIC
Method: as §3

H. pylori = test: MIC, Gram-negative planktonic strains; details: Helicobacter pylori
Method: as §3

A. baumannii = test: MIC, Gram-negative planktonic strains; details: Acinetobacter baumannii
Method: as §3

[22] = test system: E. faecium Van-Susceptible
Method: as §3

[23] = test system: E. faecalis Van-Susceptible
Method: as §3

[24] = median (IQR), MSSA (29213), 24 h treatment in media
[25] = median (IQR), MRSA (USA300LAC), 24 h treatment in media

Method for MRSA (USA300LAC) biofilm: (§4) Determination of MBECs. Minimum Biofilm Eradication Concentrations (MBECs) were determined in accordance with literature methods. Prior to each assay, 4 mL Tryptic Soy broth (TSB) was inoculated with one colony of S. aureus 29213, MW2 or USA300 and incubated at 37° C., 200 rpm shaking until stationary phase was reached (OD>2). The cultures were adjusted to in TSB to achieve a final inoculum density of 1×10^7 CFU/ml, and 150 μL of inoculum was added to each well of a 96-well base plate (Nunc™ 269787), and a plate lid containing 96 pegs (Nunc™ 445497) was added to the base. The entire apparatus was sealed with parafilm and placed in a sealed plastic bag lined with moistened paper towels for 48 h growth with shaking (150 rpm) at 35° C.
(§5) To prepare biofilm treatment plates, 20-fold stocks of the highest concentration tested were made in sterile-filtered PBS. The 20-fold stocks were diluted in TSB to yield 2-fold working stocks; 200 μL of working stock was added to the highest concentration treatment well and 2-fold serially diluted across the plate to lend final treatment volumes of 100 μL/well. TSB was added to treatment wells to yield final volume of 200 μL/well. PBS was added to the edge wells of the 96-well plate.
(§6) Prior to treatment, 48 h biofilms were rinsed in a 96-well plate containing 200 μL PBS/well for one minute and then the peg lid was transferred to the treatment plate. The plate was parafilmed and incubated at 35° C. for 24 h with 150 rpm shaking. Upon 24 h treatment, the peg lid was removed, rinsed in 200 μL PBS buffer twice for 1 min each, then transferred to a recovery plate containing 200 μL TSB+1% Tween-20 per well. The apparatus was placed in a steel tray and sonicated in a water bath sonicator (Branson 1510) for 10 min to dislodge biofilms. The peg lid was subsequently removed and the media-containing plate was incubated for 20 h at 35° C. with 150 rpm shaking to recover biofilms. The MBEC was read as the lowest treatment concentration where no growth occurred, as determined by measuring by OD600 on a plate reader. […]
Method for MRSA (USA400MW2) biofilm: as §4
To prepare biofilm treatment plates, 20-fold stocks of the highest concentration tested were made in sterile-filtered PBS. […]
Prior to treatment, 48 h biofilms were rinsed in a 96-well plate containing 200 μL PBS/well for one minute and then the peg lid was transferred to the treatment plate. […] The MBEC was read as the lowest treatment concentration where no growth occurred, as determined by measuring by OD600 on a plate reader. […]
Method for MSSA (29213) biofilm: as §4, §5, §6
Method for S. aureus biofilms: as §4, §5
Prior to treatment, 48 h biofilms were rinsed in a 96-well plate containing 200 μL PBS/well for one minute and then the peg lid was transferred to the treatment plate. The plate was parafilmed and incubated at 35° C. for 24 h with 150 rpm shaking. Upon 24 h treatment, the peg lid was removed, rinsed in 200 μL PBS buffer twice for 1 min each, then transferred to a recovery plate containing 200 μL TSB+1% Tween-20 per well. The apparatus was placed in a steel tray and sonicated in a water bath sonicator (Branson 1510) for 10 min to dislodge biofilms. The peg lid was subsequently removed and the media-containing plate was incubated for 20 h at 35° C. with 150 rpm shaking to recover biofilms. The MBEC was read as the lowest treatment concentration where no growth occurred, as determined by measuring by OD600 on a plate reader. The values reported are median values from a minimum of two experiments performed on different days.

With `CN[C@H](CC(C)C)C(=O)N[C@H]1C(=O)N[C@@H](CC(N)=O)C(=O)N[C@H]2C(=O)N[C@H]3C(=O)N[C@H](C(=O)N[C@H](C(=O)NCCCCCC(=O)N[C@H](CCCNC(=N)N)C(=O)N[C@H](CCCNC(=N)N)C(=O)N[C@H](CCCNC(=N)N)C(=O)N[C@H](CCCNC(=N)N)C(=O)N[C@H](CCCNC(=N)N)C(=O)N[C@H](CCCNC(=N)N)C(=O)N[C@H](CCCNC(=N)N)C(=O)N[C@H](CCCNC(=N)N)C(N)=O)c4cc(O)cc(O)c4-c4cc3ccc4O)[C@H](O)c3ccc(c(Cl)c3)Oc3cc2cc(c3O[C@@H]2O[C@H](CO)[C@@H](O)[C@H](O)[C@H]2O[C@H]2C[C@](C)(N)[C@H](O)[C@H](C)O2)Oc2ccc(cc2Cl)[C@H]1O` [V-r8, vancomycin-D-octaarginine] the “efficacy against persister cells relative to vancomycin” value ([1]; at 20 μM) was > 1500 fold, the “killing of persister cells” value [1] was “enhanced killing of persister cells” and the “Log CFU/ml counts” value (MRSA USA300 biofilms; 16 μM in PBS) was 2.2 (0.2) Log CFU/ml. For the same molecule, the “Log CFU/ml counts” value (MRSA USA300 biofilms; 32 μM in PBS) was 2.0 (0) Log CFU/ml, the “biofilm-associated MRSA eradicated” value (MRSA USA300 biofilms; 5 h treatment at 16 and 32 μM) was 98% and the “cell killing, time-kill in MHB” value (MRSA USA400 MW2) was “rapid killing; also recorded: eradicated MRSA to the CFU/ml detection limit”. The “killing relative to V, r8 and untreated cells” value (V. cholerae; after 4 h) was ~5 orders of magnitude, the “higher killing than kanamycin” value (V. cholerae; over the first 2 h) was 2-3 orders of magnitude and the “Minimum Inhibitory Concentration (MIC)” value (MSSA (29213) [2]; median (IQR), MSSA (29213)) was 1.6 (0.5) μM. For the same molecule, the “Minimum Inhibitory Concentration (MIC)” value (MRSA (USA400MW2) [3]; median (IQR), MRSA (USA400MW2)) was 0.94 (0.2) μM, the “Minimum Inhibitory Concentration (MIC)” value (MRSA (USA300LAC) [4]; median (IQR), MRSA (USA300LAC)) was 2.0 (0.1) μM and the “Minimum Biofilm Eradication Concentration (MBEC)” value (MSSA (29213) biofilm; [24]) was 16 µM. For the same molecule, the “Minimum Biofilm Eradication Concentration (MBEC)” value (MRSA (USA300LAC) biofilm; [25]) was 9.5 µM, the “acute toxicity, open wound” value [5] was “no acute toxicity” and the “improvement against VRE faecium (over vancomycin)” value (E. faecium Van-Resistant [6]) was 128 fold. The “Median MIC” value [7] was 10 µM, the “Median MIC” value (E. coli UTI89 [8]; E. coli UTI89) was ≥32 µM and the “Median MIC” value (P. aeruginosa PA14 [9]) was >32 µM. For the same molecule, the “better potency over vancomycin in diminishing growth of biofilm-associated bacteria” value (S. aureus biofilms; in PBS) was 160 fold, the “better potency over vancomycin in diminishing growth of biofilm-associated bacteria” value (S. aureus biofilms; in media) was > 31 fold and the “minimum biofilm eradication concentrations (MBECs)” value (S. aureus biofilms; range over S. aureus strains of Table 1) was 2.5 to 16 µM. For the same molecule, the “reduction in biofilm bacterial load (CFU/wound)” value (USA300 LAC biofilm wound) was “significant reduction; also recorded: as effective as 2% fusidic acid”, the “SYTOX Green uptake (membrane damage)” value [10] was “no SYTOX Green uptake” and the “antimicrobial activity against planktonic S. aureus” value (planktonic S. aureus) was “single digit micromolar”.

In the case of `CN[C@H](CC(C)C)C(=O)N[C@H]1C(=O)N[C@@H](CC(N)=O)C(=O)N[C@H]2C(=O)N[C@H]3C(=O)N[C@H](C(=O)N[C@H](C(=O)O)c4cc(O)cc(O)c4-c4cc3ccc4O)[C@H](O)c3ccc(c(Cl)c3)Oc3cc2cc(c3O[C@@H]2O[C@H](CO)[C@@H](O)[C@H](O)[C@H]2O[C@H]2C[C@](C)(N)[C@H](O)[C@H](C)O2)Oc2ccc(cc2Cl)[C@H]1O` [Vancomycin], the “killing of persister cells” value [1] is reported as “ineffective”, the “Log CFU/ml counts” value (MRSA USA300 biofilms; 16 μM in PBS) is reported as 4.3 (0.3) Log CFU/ml and the “Log CFU/ml counts” value (MRSA USA300 biofilms; 32 μM in PBS) is reported as 5.1 (1.0) Log CFU/ml. The “killing of biofilms after 5 h treatment” value (MRSA USA300 biofilms; 16 and 32 μM, in words) was “ineffective”, the “cell killing, time-kill in MHB” value (MRSA USA400 MW2) was “required longer treatment time” and the “Minimum Biofilm Eradication Concentration (MBEC)” value (MSSA (29213) biofilm; [24]) was ≥500 µM. For the same molecule, the “Minimum Biofilm Eradication Concentration (MBEC)” value (MRSA (USA400MW2) biofilm; median (IQR), MRSA (USA400MW2), 24 h treatment in media) was ≥500 µM, the “Minimum Biofilm Eradication Concentration (MBEC)” value (MRSA (USA300LAC) biofilm; [25]) was ≥400 µM and the “increase of MIC in VRE faecium” value (E. faecium Van-Resistant [6]; resistant versus susceptible) was > 1350 fold. The “increase of MIC in VRE faecalis” value ([11]; resistant versus susceptible) was > 85 fold, the MIC (MSSA (29213) [12]) was 0.5 µM (≈ 0.725 µg/mL) and the MIC (MRSA (USA400MW2) [13]) was 0.5 µM (≈ 0.725 µg/mL). It also gave an MIC (MRSA (USA300LAC) [14]) of 0.5 µM (≈ 0.725 µg/mL), an MIC [15] of 0.375 µM (≈ 0.543 µg/mL) and an MIC (E. faecium Van-Resistant [16]) of 512 µM (≈ 742 µg/mL). It also gave an MIC [17] of 1.5 µM (≈ 2.17 µg/mL), an MIC [18] of 128 µM (≈ 186 µg/mL) and an MIC [19] of 100 µM (≈ 145 µg/mL). The MIC (E. coli UTI89 [20]) was > 128 µM, the MIC (P. aeruginosa PA14 [21]) was > 256 µM and the MIC (H. pylori) was > 32 µM. For the same molecule, the MIC (A. baumannii) was > 32 µM, the “reduction in biofilm bacterial load (CFU/wound)” value (USA300 LAC biofilm wound) was “not statistically significant” and the “SYTOX Green uptake (membrane damage)” value [10] was “no SYTOX Green uptake”.

With `N=C(N)NCCC[C@@H](N)C(=O)N[C@H](CCCNC(=N)N)C(=O)N[C@H](CCCNC(=N)N)C(=O)N[C@H](CCCNC(=N)N)C(=O)N[C@H](CCCNC(=N)N)C(=O)N[C@H](CCCNC(=N)N)C(=O)N[C@H](CCCNC(=N)N)C(=O)N[C@H](CCCNC(=N)N)C(N)=O` [r8, octa-D-arginine] the “killing of persister cells” value [1] was “no activity”, the “Minimum Inhibitory Concentration (MIC)” value (MSSA (29213) [2]; 29213) was 60 (20) μM and the “Minimum Inhibitory Concentration (MIC)” value (MRSA (USA400MW2) [3]; USA400) was 20 (0) μM. For the same molecule, the “Minimum Inhibitory Concentration (MIC)” value (MRSA (USA300LAC) [4]; USA300) was 40 (0) μM, the “Minimum Biofilm Eradication Concentration (MBEC)” value (MSSA (29213) biofilm; 29213) biofilm, 24 h) was >80 µM and the “Minimum Biofilm Eradication Concentration (MBEC)” value (MRSA (USA400MW2) biofilm; USA400, 24 h) was >80 µM. For the same molecule, the “Minimum Biofilm Eradication Concentration (MBEC)” value (MRSA (USA300LAC) biofilm; USA300, 24 h) was >80 µM, the “E. faecium MICs Van-Susceptible” value [22] was >64 µM and the “E. faecium MICs Van-Resistant” value (E. faecium Van-Resistant [6]; Van-Resistant) was >128 µM. The “E. faecalis MICs Van-Susceptible” value [23] was >64 µM, the “E. faecalis MICs Van-Resistant” value ([11]; Van-Resistant) was >64 µM and the “Median MIC” value (E. coli UTI89 [8]; UTI89) was 36 µM. The “ability to eradicate biofilms” value (S. aureus biofilms; in words) was “unable to eradicate biofilms”.

For “Lysostaphin: an antibacterial enzyme that induces membrane permeabilization, positive control”, the “SYTOX Green uptake (membrane damage)” value [10] was “Rapid uptake of SYTOX Green”.
